Reference: patent US6919188B1, “Pseudomycin production by Pseudomonas syringae” (Eli Lilly and Company, priority 1999, dated 2005)
Entries after “also recorded” stand apart in the source; their conditions may differ. Starred links: 1 amine or outer side, 2 acyl side, 3 side chain; linkers in the order of their positions; H or OH if unused. Positions of bridges follow the written chain, without caps; N, C: chain ends. Non-standard residues stand in square brackets, D forms with d. Residues, ends and D or L forms follow the SMILES beside them. ξ: configuration not given here. *: point of attachment. Tetradecanoyl(3R-OH) = CCCCCCCCCCC[C@@H](O)CC(=O)*; Asp(3S-OH) = N[C@H](C(=O)O)[C@H](O)C(=O)O; Thr(4-Cl) = N[C@H](C(=O)O)[C@H](O)CCl; ξAsp(3ξ-OH) = NC(C(=O)O)C(O)C(=O)O; X3 = O=C(C(N[*:1])C(O)CCl)[*:2]; X1 = CCCCCCCCCCC(O)C(O)CC(=O)*; aThr = C[C@H](O)[C@H](N)C(=O)O; X2 = C/C=C(/N[*:1])C(=O)[*:2]; dDab = NCC[C@@H](N)C(=O)O; Dab = NCC[CH](N)C(=O)O; Dhb = C/C=C(\N)C(=O)O

Legend:
[1] = system: fungi, including important fungal pathogens in both humans and plants; details: isolated pseudomycins; spectrum of fungi; cited from earlier work
[2] = Toxicity of pseudomycins (general statement); details: no species or dose given
[3] = system: fungi, including important fungal pathogens in both humans and plants; test: Antifungal activity of isolated pseudomycins (general statements, literature); format: cell-based; details: comparison with pseudomycins A, C, certain fungi

Compound	antifungal activity [1]	toxicity [2]	potency against fungi compared to the other preferred pseudomycins [3]
C/C=C1/NC(=O)C(C(C)O)NC(=O)C(CCN)NC(=O)C(CCCCN)NC(=O)C(CC(=O)O)NC(=O)C(CCN)NC(=O)C(NC(=O)CC(O)C(O)CCCCCCCCCC)COC(=O)C(C(O)CCl)NC(=O)C(C(O)C(=O)O)NC1=O (centres unmarked) [Pseudomycin A] (X1-S[Dab]DK[Dab]T[X2][ξAsp(3ξ-OH)][X3]; ester 1-C; configuration not given here)	activity against a wide variety of fungi; also recorded: wide spectrum antifungal activity	generally acceptable toxicity	
C/C=C1\NC(=O)[C@H]([C@H](C)O)NC(=O)[C@H](CCN)NC(=O)[C@H](CCCCN)NC(=O)[C@H](CC(=O)O)NC(=O)[C@@H](CCN)NC(=O)[C@@H](NC(=O)C[C@H](O)CCCCCCCCCCC)COC(=O)[C@H]([C@H](O)CCl)NC(=O)[C@H]([C@H](O)C(=O)O)NC1=O [Pseudomycin B] ({Tetradecanoyl(3R-OH)}-S[dDab]DK[Dab][aThr][Dhb][Asp(3S-OH)][Thr(4-Cl)]; ester 1-C)	activity against a wide variety of fungi; also recorded: wide spectrum antifungal activity	generally acceptable toxicity; also recorded: lower level of toxicity	greater potency against certain fungi
